Measurements: patent US11584762B1, “Near-infrared fluorescent indicators for lysosome and application thereof” (DALIAN UNIVERSITY OF TECHNOLOGY, priority 2022, dated 2023)

Experiments:
[1] = Photophysical properties in acetonitrile (absorption, emission, extinction coefficient, quantum yield); type: physicochemical
Experimental: The photophysical properties of compounds D1, D2, D25 and D26 were investigated. Compounds D1, D2, D25 and D26 were dissolved in DMSO to obtain a 1 mM stock solution. The stock solution was further diluted with acetonitrile to obtain a 1 μM testing solution, of which 1 μL trifluoroacetic acid (0.1% by volume) was added. The absorption spectrum, emission spectrum, quantum yield and molar extinction coefficient of these testing solutions were measured. The absorption spectrum was recorded on Agilent 8453 UV-Vis-Spectrophotometer, and the fluorescent spectrum was recorded on an Agilent fluorescence spectrometer. The maximum absorption spectrum (λab), the maximum emission spectrum (λem), the molar extinction coefficient (ε), and the fluorescence quantum yield (Φ^1) of compounds D1, D2, D25 and D26 were shown in Table 1.
(§1) The photophysical properties of compounds D6, D15, D20, D22, D46 and D51 are provided in Table 2, following a similar testing method as example 14 and example 15. […] It can be seen that such property is in favor of confocal imaging of lysosomes without PBS washing.

[2] = Emission in 2 mM CTAB (pH 3) or H2O (pH 7); type: physicochemical; settings: for Emission in 2 mM CTAB at pH 3 / Fluorescence in water at pH 7: FIG. 1, 1 μM; for Emission in 2 mM CTAB at pH 3: pH 3, lysosome-like microenvironment; for Fluorescence in water at pH 7: H2O; for Fluorescence emission in 2 mM CTAB at pH 3 / Fluorescence emission in water at pH 7: Table 2
Experimental: The properties of compounds D1, D2, D25 and D26 were investigated. Compounds D1, D2, D25 and D26 were dissolved in DMSO to obtain a 1 mM stock solution. The stock solution was further diluted with 2 mM CTAB (pH 3) or H2O (pH 7) to obtain a 1 μM testing solution. The absorption spectrum and emission spectrum of the testing solution were measured. The evaluated method of photophysical properties was the same as example 13.
CTAB (Hexadecyl trimethyl ammonium bromide) is a cationic surfactant with a critical micelle concentration of 0.9 mM. CTBA exists in the form of micelles in a 2 mM solution of CTAB, which not only helps dissolve dye molecules but also simulates the acidic microenvironment of lysosomes. […] It is preliminarily determined that such property is in favor of confocal imaging of lysosomes without PBS washing.
as §1

[3] = tested on: lysosomes of RAW 264.7 cells; assay: Confocal imaging of live cell lysosomes co-stained with DND-26; type: cell-based; settings: co-stain 1 μM DND-26, PBS washed
Experimental: The fluorescent imaging of compounds D1, D6, D22 and D25. After incubating for 24 hours in a cell incubator with 5% CO2 at 37° C., RAW 264.7 cells were incubated with 1 μM D1 or 1 μM D6 for 5 min, or incubated with 1 μM D22 or 1 μM D25 for 60 min, then incubated with 1 μM DND-26 which is green lysosome probe for 5 min, washed three times with PBS, then imaged using a confocal microscope.
The fluorescence image of compounds D15, D20, D46 and D51. After incubating for 24 hours in a cell incubator with 5% CO2 at 37° C., RAW 264.7 cells were incubated with 1 μM D15 or 1 μM D20 for 5 min, or incubated with 1 μM D46 or 1 μM D51 for 60 min, then incubated with 1 μM DND-26 for 5 min, washed three times with PBS, and then imaged using a confocal microscope.

[4] = tested on: lysosomes of RAW 264.7 cells; assay: Confocal imaging of live cell lysosomes without washing; type: cell-based; settings: 100 nM for 60 min, no washing
Experimental: The fluorescence image of compound D25. After incubating for 24 hours in a cell incubator with 5% CO2 at 37° C., RAW 264.7 cells were incubated with 100 nM D25 for 60 min and then imaged using a confocal microscope.

[5] = tested on: lysosomes of RAW 264.7 cells; assay: Confocal imaging of lysosomes after chloroquine stimulation; type: cell-based; settings: 1 μM, co-staining D25 and DND-26, 20 µM chloroquine, within 5 min
Experimental: The fluorescence imaging of compound D25. After incubating for 24 hours in a cell incubator with 5% CO2 at 37° C., RAW 264.7 cells were incubated with 1 μM D25 for 60 min, then incubated with 1 μM DND-26 for 5 min, washed three times with PBS, and then imaged using a confocal microscope after adding 20 µM chloroquine. Chloroquine can cause protons to escape from lysosomes, so it can be used to raise the pH of the lysosomes.

[6] = Confocal imaging of stained vesicles at pH 4.0 and pH 7.4; settings: 60 min
Experimental: We further investigate the targeting feature by imaging vesicles stained with D25 at pH 4.0 and pH 7.4.
The “droplet transfer” method was used to prepare vesicles composed of PC/Chol molar ratios of 7:3, following six steps as below: 1) Prepare 200 mM glucose aqueous solution and sucrose aqueous solution respectively. 2) Hydrophobic phase (0.3 mM PC in decane+0.3 mM CL in decane for PC/CL). 3) The hydrophobic phase was prepared by adding PC (0.3 mM) and possibly other lipids (SM and/or Chol) in decane. 4) Pipette the aqueous phase consisting of 20 μL of sucrose solution and the hydrophobic phase consisting of 600 μL PC/CL into a 1.5 ml centrifuge tube and shake them well. 5) Centrifuge the tube, then remove the mineral oil and wash the GUVs to remove excess solutes. 6) Suspend 30 μL of the pellet in 20 μL of 200 mM glucose solution. 7) Pipette 20 μL onto a glass slide and observe with a confocal microscope and fluorescence lifetime microscope.
Method for vesicles imaging, 30 μL of the vesicles was diluted with 20 μL of 200 mM glucose solution, then stained with D25 in pH 4 PBS (or in pH 7.4 PBS) for 60 min and imaged with a confocal microscope.

[7] = tested on: lysosomal membrane of RAW 264.7 cells; assay: STED-based super-resolution imaging; type: cell-based; settings: 250 nM for 60 min
Experimental: We used D25 as a representative to evaluate its ability to perform STED-based super-resolution imaging. After incubating for 24 hours in a cell incubator with 5% CO2 at 37° C., RAW 264.7 cells were stained with 250 nM D25 for 60 min and imaged using STED based microscope after replacing the staining solution with fresh MEM.

[8] = Table 1, acetonitrile, 1 μM, trifluoroacetic acid 0.1% by volume

Structure (SMILES)	Φ^1 (fluorescence quantum yield) ([1]; Table 1, acetonitrile)	ε (molar extinction coefficient) ([1]; Table 1, acetonitrile) [M^−1 · cm^−1 × 10^4]	λab (maximum absorption) [1, 8] [nm]	λem (maximum emission) [1, 8] [nm]	Emission in 2 mM CTAB at pH 3 [2]	Fluorescence in water at pH 7 [2]	Lysosome targeting in confocal images ([3]; 1 μM for 5 min)	Φ^1 (fluorescence quantum yield) ([1]; Table 2, in acetonitrile)	ε (molar extinction coefficient) ([1]; Table 2, in acetonitrile) [M^−1 · cm^−1 × 10^4]	λab (maximum absorption) ([1]; Table 2, in acetonitrile) [nm]	λem (maximum emission) ([1]; Table 2, in acetonitrile) [nm]	Fluorescence emission in 2 mM CTAB at pH 3 [2]	Fluorescence emission in water at pH 7 [2]	Lysosome targeting in confocal images ([3]; 1 μM for 60 min)	Lysosome imaging without washing [4]	Change of fluorescence intensity after adding chloroquine [5]	Fluorescence of stained vesicles at pH 4 ([6]; pH 4 PBS)	Fluorescence of stained vesicles at pH 7.4 ([6]; pH 7.4 PBS)	Localization in super-resolution image [7]
CC1=CC(C)=[N+]2C1=C(c1ccccc1)c1c(C)cc(C=Cc3ccc4c(c3)c3ccccc3n4Cc3cn(CCN(C)CCN(C)C)nn3)n1[B-]2(F)F [D1]	0.83	7.5	581	603	stable emission	almost no fluorescence	can specifically target lysosomes	–	–	–	–	–	–	–	–	–	–	–	–
CC1=C(Cl)C(C)=[N+]2C1=C(c1ccccc1)c1c(C)c(Cl)c(C=Cc3ccc4c(c3)c3ccccc3n4Cc3cn(CCN(C)CCN(C)C)nn3)n1[B-]2(F)F [D2]	0.63	10.4	604	650	stable emission	almost no fluorescence	–	–	–	–	–	–	–	–	–	–	–	–	–
CC1=C(Cl)C(C)=[N+]2C1=C(c1ccc(C)cc1)c1c(C)c(Cl)c(C=Cc3ccc4c(c3)c3ccccc3n4Cc3cn(CCN4CCNCC4)nn3)n1[B-]2(F)F [D6]	–	–	–	–	–	–	can specifically target lysosomes	0.73	8.1	590	615	Stable	No	–	–	–	–	–	–
CCOC(=O)CCC1=C2C(C)=CC(C)=[N+]2[B-](F)(F)n2c(C=Cc3ccc4c(c3)c3ccccc3n4Cc3cn(CCCN(C)CCN(C)C)nn3)cc(C)c21 [D22]	–	–	–	–	–	–	–	0.81	10.8	611	661	Stable	No	can specifically target lysosomes	–	–	–	–	–
CC1=CC(C=Cc2ccc3c(c2)c2ccccc2n3Cc2cn(CCN(C)CCN(C)C)nn2)=[N+]2C1=C(c1ccccc1)c1c(C)cc(C=Cc3ccc4c(c3)c3ccccc3n4Cc3cn(CCN(C)CCN(C)C)nn3)n1[B-]2(F)F [D25]	0.94	9.2	664	684	stable emission	almost no fluorescence	–	–	–	–	–	–	–	can specifically target lysosomes	can be used for lysosome images without washing	only changed slightly	intense fluorescence	weak fluorescence	localized in the lysosomal membrane
CC1=C(Cl)C(C=Cc2ccc3c(c2)c2ccccc2n3Cc2cn(CCN(C)CCN(C)C)nn2)=[N+]2C1=C(c1ccccc1)c1c(C)c(Cl)c(C=Cc3ccc4c(c3)c3ccccc3n4Cc3cn(CCN(C)CCN(C)C)nn3)n1[B-]2(F)F [D26]	0.72	11.3	692	732	stable emission	almost no fluorescence	–	–	–	–	–	–	–	–	–	–	–	–	–
CCOC(=O)CCC1=C2C(C)=CC(/C=C/c3ccc4c(c3)c3ccccc3n4Cc3cn(CCCN(C)CCN(C)C)nn3)=[N+]2[B-](F)(F)n2c(/C=C/c3ccc4c(c3)c3ccccc3n4Cc3cn(CCCN(C)CCN(C)C)nn3)cc(C)c21 [D46]	–	–	–	–	–	–	–	0.89	11.0	659	675	Stable	No	can specifically target lysosomes	–	–	–	–	–
COc1ccc(C2=C3C(C)=C(Cl)C(C=Cc4ccc5c(c4)c4ccccc4n5Cc4cn(CCN5CCNCC5)nn4)=[N+]3[B-](F)(F)n3c(C=Cc4ccc5c(c4)c4ccccc4n5Cc4cn(CCN5CCNCC5)nn4)c(Cl)c(C)c32)cc1 [D51]	–	–	–	–	–	–	–	0.79	11.1	689	728	Stable	No	can specifically target lysosomes	–	–	–	–	–
